The values below come from patent US20240166660A1, “KRAS G12C INHIBITORS” (BeiGene Switzerland GmbH, priority 2021, published 2024).

What is called IC50 is the concentration at which inhibition is half-maximal.

Where only a bound is given, the exact number is not on record here.

KRAS (aa 1-169) G12C, C51S, C80L, C118S, sequence (P01116 other isoform, or with tags, fused parts or gaps G12C/C51S/C80L/C118S): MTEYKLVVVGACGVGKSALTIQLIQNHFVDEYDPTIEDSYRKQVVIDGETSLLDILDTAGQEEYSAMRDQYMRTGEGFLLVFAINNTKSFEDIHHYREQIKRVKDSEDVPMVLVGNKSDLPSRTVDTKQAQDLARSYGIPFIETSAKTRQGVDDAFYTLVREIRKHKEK

One test has as its target KRAS (aa 1-169) G12C, C51S, C80L, C118S (Homo sapiens (Human), UniProt P01116, C118S/C51S/C80L/G12C). Kind of test: Biochemical functional assay: SOS1-mediated nucleotide exchange of GDP-loaded KRAS G12C, binding to GST-cRaf RBD, FRET readout. The conditions noted are these: 3 hrs pre-incubation with compound at 24° C., SOS1, GTPyS, bound in uM. The method in brief: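 GDP-loaded His-tagged KRAS construct preincubated with compound 3 h at 24° C in 25 mM HEPES pH7.5, 10 mM MgCl2, 0.01% Triton X-100; SOS1 (aa 564-1049), GTPγS and GST-cRaf RBD added for 3 h, then anti-His Tb cryptate/anti-GST XL665 for 3 h. HTRF 665/620 ratio; IC50 by four-parameter logistic fit.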
`C=CC(=O)N1CCN(c2nc(OC[C@@H]3C[C@@H](F)CN3C)nc3cc(-c4cccc(F)c4F)c4c(c23)OCCC4)CC1` [Compound B14, 1-(4-(5-(2,3-difluorophenyl)-8-(((2S,4R)-4-fluoro-1-methylpyrrolidin-2-yl)methoxy)-3,4-dihydro-2H-pyrano[2,3-f]quinazolin-10-yl)piperazin-1-yl)prop-2-en-1-one]: the IC50 was more than 10 µM.

`C=CC(=O)N1CCN(c2nc(N3CC(N(C)C)C3)nc3cc(-c4ccccc4C#N)c4c(c23)OCCC4)CC1` [Compound B19, 2-(10-(4-acryloylpiperazin-1-yl)-8-(3-(dimethylamino)azetidin-1-yl)-3,4-dihydro-2H-pyrano[2,3-f]quinazolin-5-yl)benzonitrile]: the 50% inhibitory concentration (IC50) was more than 10 µM.

Staying with this test, now noted: 3 hrs pre-incubation with compound at 24° C., SOS1, GTPyS, inhibition of nucleotide exchange.
For the compound `C=CC(=O)N1CCN(c2nc(OC[C@@H]3CCCN3C)nc3cc(-c4c(C)cccc4C)c4ccoc4c23)CC1` [Compound B56, (S)-1-(4-(4-(2,6-dimethylphenyl)-7-((1-methylpyrrolidin-2-yl)methoxy)furo[2,3-f]quinazolin-9-yl)piperazin-1-yl)prop-2-en-1-one], the IC50 amounted to 0.632 µM.

Regarding `C=C(F)C(=O)N1CCN(c2nc(OC[C@H]3CCCN3C)nc3cc(-c4cccc5cccc(Cl)c45)c4c(c23)OCCC4)C[C@@H]1CC#N` (single isomer, unassigned) [Compound B105], the half-maximal inhibitory concentration (IC50) stood at 0.29 µM.

Consider `C=C(F)C(=O)N1CCN(c2nc(O[C@@H]3CCCC[C@H]3N(C)C)nc3cc(-c4cccc5cccc(Cl)c45)c4c(c23)OCCC4)C[C@@H]1CC#N` [Compound B61, 2-((S)-4-(5-(8-chloronaphthalen-1-yl)-8-(((1R,2R)-2-(dimethylamino)cyclohexyl)oxy)-3,4-dihydro-2H-pyrano[2,3-f]quinazolin-10-yl)-1-(2-fluoroacryloyl)piperazin-2-yl)acetonitrile], for which the IC50 worked out at 0.186 µM.

Turning to `C=C(F)C(=O)N1CCN(c2nc(OC[C@@H]3C[C@@H](F)CN3C)nc3cc(-c4cccc5cccc(Cl)c45)c4c(c23)OCCC4)C[C@@H]1CC#N` [Compound B53, 2-((S)-4-(5-(8-chloronaphthalen-1-yl)-8-(((2S,4R)-4-fluoro-1-methylpyrrolidin-2-yl)methoxy)-3,4-dihydro-2H-pyrano[2,3-f]quinazolin-10-yl)-1-(2-fluoroacryloyl)piperazin-2-yl)acetonitrile], the IC50 turned out to be 0.028 µM.

As for `C=CC(=O)N1CCN(c2ncnc3cc(-c4c(C)cccc4F)c4c(c23)OCCC4)C[C@@H]1CC#N` [Compound A33, 2-((2S)-1-acryloyl-4-(5-(2-fluoro-6-methylphenyl)-3,4-dihydro-2H-pyrano[2,3-f]quinazolin-10-yl)piperazin-2-yl)acetonitrile], the IC50 came out at 0.233 µM.

In the case of `C=C(F)C(=O)N1CCN(c2nc(OC[C@@H]3C[C@H](F)CN3C)nc3cc(-c4cccc5cccc(Cl)c45)c4c(c23)OCCC4)C[C@@H]1CC#N` [Compound B54, 2-((S)-4-(5-(8-chloronaphthalen-1-yl)-8-(((2S,4S)-4-fluoro-1-methylpyrrolidin-2-yl)methoxy)-3,4-dihydro-2H-pyrano[2,3-f]quinazolin-10-yl)-1-(2-fluoroacryloyl)piperazin-2-yl)acetonitrile], the IC50 stood at 0.04 µM.

For `C=CC(=O)N1C[C@H](C)N(c2nc(OC[C@@H]3CCCN3C)nc3cc(-c4cccc5cccc(Cl)c45)c4ccoc4c23)C[C@H]1C` [Compound B52, 1-((2R,5S)-4-(4-(8-chloronaphthalen-1-yl)-7-(((S)-1-methylpyrrolidin-2-yl)methoxy)furo[2,3-f]quinazolin-9-yl)-2,5-dimethylpiperazin-1-yl)prop-2-en-1-one], the IC50 came to 0.654 µM.

`C=CC(=O)N1CCN(c2ncnc3cc(-c4c(O)cccc4F)c4c(c23)OC(C)(C)CC4)C[C@@H]1CC#N` [Compound A3, 2-((2S)-1-acryloyl-4-(5-(2-fluoro-6-hydroxyphenyl)-2,2-dimethyl-3,4-dihydro-2H-pyrano[2,3-f]quinazolin-10-yl)piperazin-2-yl)acetonitrile]: the IC50 was 0.559 µM.

Consider `C=CC(=O)N1CCN(c2ncnc3cc(-c4cccc5cccc(Cl)c45)c4c(c23)OCCC4)C[C@@H]1CC#N` [Compound A32, (S)-2-(1-acryloyl-4-(5-(8-chloronaphthalen-1-yl)-3,4-dihydro-2H-pyrano[2,3-f]quinazolin-10-yl)piperazin-2-yl)acetonitrile], for which the IC50 is 0.012 µM.

Consider `C=CC(=O)N1CCN(c2ncnc3cc(-c4c(C)c(C)cc5[nH]ncc45)c4c(c23)OCCC4)C[C@@H]1CC#N` [Compound A25, 2-((2S)-1-acryloyl-4-(5-(5,6-dimethyl-1H-indazol-4-yl)-3,4-dihydro-2H-pyrano[2,3-f]quinazolin-10-yl)piperazin-2-yl)acetonitrile], for which the IC50 turned out to be 0.0155 µM.

Consider `C=CC(=O)N1CCN(c2nc(OC[C@@H]3C[C@@H](F)CN3C)nc3cc(N4CCCc5ccccc54)c4c(c23)OCCC4)CC1` [Compound B27, 1-(4-(5-(3,4-dihydroquinolin-1(2H)-yl)-8-(((2S,4R)-4-fluoro-1-methylpyrrolidin-2-yl)methoxy)-3,4-dihydro-2H-pyrano[2,3-f]quinazolin-10-yl)piperazin-1-yl)prop-2-en-1-one], for which the IC50 amounted to 0.321 µM.

With `C=C(F)C(=O)N1CCN(c2nc(N3CC(COC)(N(C)C)C3)nc3cc(-c4cccc5cccc(Cl)c45)c4c(c23)OCCC4)C[C@@H]1CC#N` [Compound B86, (S)-2-(4-(5-(8-chloronaphthalen-1-yl)-8-(3-(dimethylamino)-3-(methoxymethyl)azetidin-1-yl)-3,4-dihydro-2H-pyrano[2,3-f]quinazolin-10-yl)-1-(2-fluoroacryloyl)piperazin-2-yl)acetonitrile], the IC50 turned out to be 0.019 µM.

For the compound `C=CC(=O)N1CCN(c2ncnc3cc(-c4cc(C(F)(F)F)cc5[nH]ncc45)c4c(c23)OCCC4)C[C@@H]1CC#N` [Compound A18, (S)-2-(1-acryloyl-4-(5-(6-(trifluoromethyl)-1H-indazol-4-yl)-3,4-dihydro-2H-pyrano[2,3-f]quinazolin-10-yl)piperazin-2-yl)acetonitrile], the IC50 was 0.0378 µM.
